Results published in patent publication US5610171A, “Inhibition of metastasis in patients having cancer with pyridyloxazole-2-ones” (Merrell Pharmaceuticals Inc., priority 1995, dated 1997).
Where two headings read alike, the source gives them in different places.

Columns and labels:
[1] = test system: B16 murine melanoma cells; conditions: cells treated in vitro, intravenous injection into mice; cited from earlier work
[2] = test system: SP1 mouse mammary adenocarcinoma cells; conditions: cells normally do not metastasize; cited from earlier work
[3] = test system: Lewis lung carcinoma cells; conditions: cited from earlier work
B16F1 cells = experiment: Experimental lung metastasis assay (B16F1 cells treated in culture, then injected intravenously into C57BL/6 mice); type: in vivo, murine (C57BL/6 mice); conditions: Mus musculus, B16-F1, iv, read-out: B16 Metastasis IC50
Procedure: Experimental Metastasis Assay
Sub-confluent B16F1 cells were harvested by washing with HBSS followed by trypsinization for 1 minute. The cells were sedimented by centrifugation (250 g, 5 minutes) and washed twice with HBSS. Viable cells were counted after dilution with trypan blue. A single-cell suspension of 10^5 cells in 0.2 ml HBSS was injected intravenously into 16-18 C57BL/6 mice via the tail vein. Three weeks later, the number of metastatic foci in the lung were counted.

cytosolic PKC = experiment: Inhibition of B16F1 cytosolic PKC activity; type: biochemical, murine; conditions: B16F1 cytosol fraction
Procedure: (§1) Protein Kinase C Preparation
(§2) Cytostolic and membrane-associated PKC was prepared as described in Thomas, T. P., Gopalakrishna, R. and Anderson, W. B. Hormone- and tumor promoter-induced activation of membrane association of protein kinase C in intact cells, Methodsin Enzymology, 141: 399-411, 1987. Sub-confluent B16F1 cultures (4×10^7 cells total) were washed twice with phosphate buffered saline (PBS), pH 7.2 and then twice with buffer A (20 mM Tris, pH 7.5, 2 mM EDTA, 0.5 mM EGTA, […], 2 mM phenylmethylsulfonyl fluoride (PMSF), and 2 μg/ml leupeptin). Cells were scraped from the plates in buffer A, homogenized (40 strokes) and sedimented by centrifugation for 1 hour at 100,000 g. The cytosol was stored on ice while the particulate fraction was washed with buffer B (20 mM Tris, pH 7.2, 2 mM EDTA, 0.5 mM EGTA, and 2 mM (PMSF). The membranes were resuspended with buffer B and homogenized with 10 strokes. Nonidet P-40 (1% final concentration) was added and the mixture was incubated for 30 minutes at 4° C. in a rotating mixer. Nonsolubilized material was removed by centrifugation for 10 minutes at 1400 g. Cytostolic and membrane-bound PKC was partially purified by chromatography over 1 ml columns of DE-52 (Whatman) equilibrated with buffer B. The enzyme was applied to the column and washed with 2×3 ml buffer B. Elution of PKC was then effected by the addition of 2 ml buffer B containing 100 mM NaCl.
(§3) PKC was quantitated as described in Thomas et al., ibid. The assay contained 20 mM Tris (pH 7.5), 0.75 mM CaCl, 10 mM magnesium acetate, […] histone III-S, 0.25 μg/ml leupeptin, 100 μM [gamma-^32 p]-ATP (120 cpm/pmol), 0.96 μg/ml phosphatidylserine, and 0.0064 μg/ml 1,2-diolein in a total assay volume of 250 μl. Blanks contained no calcium or phospholipids. Incubation was for 5 minutes at 30° C. at which point the reaction was terminated by the addition of 1 ml 25% trichloroacetic acid (TCA). Samples were applied to Whatman GF/B filters, the tube rinsed twice with 5% TCA and the filter then washed 5 times with 5% TCA.
^a Subconfluent B16F1 cells were harvested and cytosol and membrane
fractions prepared as described in Materials and Methods. PKC activity wa
then measured in the presence of the drugs listed.

membrane-associated PKC = experiment: Inhibition of B16F1 membrane-associated PKC activity; type: biochemical, murine; conditions: B16F1 membrane fraction
Procedure: as §1, §2, §3

[4] = test system: B16F1 cells / human umbilical vein endothelial cells (HUVEC); experiment: Adhesion of B16F1 melanoma cells to endothelial cells (HUVEC); type: cell-based, murine B16F1 cells; human HUVEC
Procedure: Adhesion of Tumor Cells to Endothelial Cells
Round 15 mm Thermanox tissue culture cover slips from Lux were placed in Corning 12-well, 22 mm diameter tissue culture clusters. HUVEC (2×10^6) were added to each well and grown to confluency. Sub-confluent B16F1 cells were labeled with 1 μCi/ml [^3 H]-thymidine (New England Nuclear, 78.5 Ci/mmol) for 24 hours at 37° C.
In preparation for the adhesion assay, the tissue culture wells containing either HUVEC or no cells were blocked with MEM containing 20 mM HEPES and 1% BSA for 1 hour at 37° C. B16F1 cells were removed from the flasks as described above for adhesion to basement membrane proteins and diluted to a density of 2×10^5 viable cells/ml in MEM (viability determined by trypan blue exclusion).
Blocking solution was aspirated from the wells and 1 ml of cells were added per well and incubated at 37° C. Nonadherent cells were washed from coverslips as described in Wright, P. S., Cross-Doersen, D., McCann, P. P. and Bitonti, A. J., Plasmodium falciparum: a rapid assay for cytoadherence of [^3 H]-hypoxanthine-labeled infected erythrocytes to human melanoma cells, Exp. Parasitol., 71: 346-349, 1990. Coverslips were retrieved from the well with forceps and dipped 10 times into a beaker of 100 ml MEM. Coverslips were placed into scintillation vials and counted in 10 ml Beckman Ready Protein.
B16F1 cells were treated with 4-propyl-5(4-pyridinyl)-
(3H)-oxazolone for 24 hours at 37° C. Cells were then
harvested and added to wells containing confluent HUVEC
cells and incubated for the time indicated at 37° C. Details
are given in Materials and Methods.

fibrinogen = experiment: Adhesion of B16F1 cells to fibrinogen; type: cell-based; conditions: 24 hours
Procedure: (§4) Adhesion of B16F1 Cells to Basement Membrane Proteins
(§5) Adhesion proteins (2 μg/well) were coated onto Immulon I Removawells from Dynatech and incubated for 1 hour at 37° C. The wells were then blocked for 1 hour with 400 μl PBS, pH 7.2 containing 1% bovine serum albumin (BSA) at 37° C. Prior to addition of the cell suspension, the blocking solution was aspirated.
(§6) Sub-confluent cells were washed twice with HBSS and removed form flasks by incubation for 10 minutes at 37° C. with PBS (pH 7.2), 2 mM EDTA, and 1% BSA. The cells were washed twice with MEM containing 20 mM HEPES and 0.1% BSA and resuspended in the same medium to give a cell density of […].
(§7) Cells were added to wells in 50 μl (5×10^4 cells) and incubated at 37° C. The wells were aspirated and washed three times with 400 μl PBS (pH 7.2) containing 0.1% BSA. Wells were detached and counted in 5 ml Beckman Ready Protein. Blanks were not coated with protein but were blocked with BSA as described above.

collagen IV = experiment: Adhesion of B16F1 cells to collagen IV; type: cell-based; conditions: 24 hours
Procedure: as §4, §5, §6, §7

[5] = cells exposed to drugs for 24 hours, nodules counted three weeks later

In the case of CCCCCCCCCCCCCC(=O)O[C@@H]1[C@@H](C)[C@@]2(O)[C@@H](C=C(CO)C[C@]3(O)C(=O)C(C)=C[C@@H]23)[C@@H]2C(C)(C)[C@]12OC(C)=O [PMA, phorbol-12-myristate-13-acetate], the “number of metastatic foci in lungs” value [1] is listed as “increased numbers of metastatic foci in lungs”, the “metastasis from the primary tumor” value [2] is listed as “resulted in metastasis from the primary tumor” and the “adhesion to endothelial cells” value [3] is listed as “enhancement of adhesion to endothelial cells”.

For CNc1ccc2oc(C[C@H]3O[C@@]4(CC[C@H]3C)O[C@H]([C@H](C)C(=O)c3ccc[nH]3)[C@H](C)C[C@H]4C)nc2c1C(=O)O [Compound A23187], the “metastasis from the primary tumor” value [2] is listed as “resulted in metastasis from the primary tumor”.

CC1CNCCN1S(=O)(=O)c1cccc2cnccc12 (stereo not shown) [Compound H-7, reference compound] showed an IC50 (B16F1 cells) of 12.5 µM, an IC50 (cytosolic PKC) of 180 µM and an IC50 (membrane-associated PKC) of 71 µM. The “adherence to HUVEC” value [4] was “Neither H-7 nor staurosporine inhibited adherence”, the adhesion to fibrinogen (fibrinogen) was “Neither H-7 nor staurosporine inhibited adherence” and the “adhesion to collagen IV” value (collagen IV) was “Neither H-7 nor staurosporine inhibited adherence”.

CCCc1[nH]c(=O)oc1-c1ccnc2ccccc12 [Compound 4, 4propyl-5-(4-quinolinyl)-2(3H)-oxazolone] gave an IC50 (cytosolic PKC) of 62 µM and an IC50 (membrane-associated PKC) of 94 µM.

Compound CCc1[nH]c(=O)oc1-c1ccnc2ccccc12 [Compound 3, 4ethyl-5-(4-quinolinyl)-2(3H)-oxazolone] has an IC50 (B16F1 cells; [5]) of 68 µM, an IC50 (cytosolic PKC) of 47 µM and an IC50 (membrane-associated PKC) of 15 µM.

Cc1[nH]c(=O)oc1-c1ccncc1 [Compound 2, 4methyl-5-(4-pyridinyl)-2(3H)-oxazolone] gave an IC50 (B16F1 cells; [5]) of 36 µM, an IC50 (cytosolic PKC) of 500 µM and an IC50 (membrane-associated PKC) of 250 µM.

For CN[C@@H]1C[C@H]2O[C@@](C)([C@@H]1OC)n1c3ccccc3c3c4c(c5c6ccccc6n2c5c31)C(=O)NC4 [Staurosporine, reference compound], the IC50 (cytosolic PKC) was 0.019 µM, the “adherence to HUVEC” value [4] was “Neither H-7 nor staurosporine inhibited adherence” and the adhesion to fibrinogen (fibrinogen) was “Neither H-7 nor staurosporine inhibited adherence”. The “adhesion to collagen IV” value (collagen IV) was “Neither H-7 nor staurosporine inhibited adherence”.
